Consider 32 compounds from PubChem BioAssay (NCI).

Several values for one entry are separate records, joined by “and”; a condition that tells them apart may be missing. Identical values can stand only once.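 Cultured in 96-well plates, cells were exposed to test compound for 48 hours across five concentrations. Abbreviation: GI50, concentration required for 50% inhibition of growth. TGI: concentration producing complete growth inhibition.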 Where only a bound is given, the exact number is not on record here.

The first assay concerns OVCAR-4 ovarian. The assay is described as follows: inhibition of tumour cell growth, NCI panel, 48 h.
For the compound `COc1cc(/C=C2\CN(S(=O)(=O)c3ccccc3)C/C(=C\c3cc(CN4CCCC4)c(O)c(OC)c3)C2=O)cc(CN2CCCC2)c1O`, the GI50 is 1.27 µM and the TGI is 3.09 µM.
The compound `CC(=O)/C(=C\c1cccc([N+](=O)[O-])c1)C(=O)Nc1ccccc1C` registered a TGI above 100 µM.
`CCN1c2ccccc2C(C(SC)S(=O)(=O)c2ccc(C)cc2)c2c1[nH]c(=O)n(C)c2=O` (stereo not given) returned a TGI above 100 µM.
The compound `COC(OC)C(C)CC(=O)N(C)C` (stereo not given) had a TGI above 100 µM.

Another assay concerns SW-620 colon. The assay is described as follows: inhibition of tumour cell growth, NCI panel, 48 h.
The compound `O=c1cc(-c2ccccc2)oc2cc(OCCCOc3ccc4c(=O)cc(-c5ccccc5)oc4c3)ccc12` returned a TGI above 100 µM.
The compound `CCOC(=O)c1cc2nc3ccccc3c(=O)n2c2ccccc12` gave a TGI above 10 µM.
`Clc1ccc(C(c2ccc(Cl)cc2)c2ccccn2)cc1` displayed a TGI of 44 µM.
With `CC(C)=Cc1cc(C(=O)Nc2ccc(Cl)c(Cl)c2)nc(N)n1`, the TGI is above 100 µM.
Same read-out and setting: in the case of `CCCCCCN(CCCCCC)C(=O)Cc1c2n(c3ccccc13)Cc1ccccc1-2` it was above 100 µM; in that of `CCCCCCCCC/C=C1\CCC(CN2CCOCC2)C1=O` (stereo not given), 5.43 µM; in that of `CC(=O)OC1COC(n2ccc3cc(Br)c([N+](=O)[O-])cc32)C(OC(C)=O)C1OC(C)=O` (stereo not given), above 100 µM.
Compound `CCOC(=O)NC(=O)c1cn(CCCO)c(=O)[nH]c1=O` showed a TGI above 100 µM.
As for `CN(C)c1nc(=Nc2ccc(N=c3nc(N(C)C)ss3)cc2)ss1`, the TGI was above 65.9 µM.
`CCc1cc(Cc2cc(CC)c(NC(=O)C(=O)Cc3ccccn3)c(CC)c2Cl)c(Cl)c(CC)c1NC(=O)C(=O)Cc1ccccn1` returned a TGI of 31.9 µM.
In turn, `C[Si](C)(C)C1(Sc2ccccc2)SCCCS1` registered a TGI above 100 µM.
On to `c1ccc(COc2cccc3ccc[n+](Cc4ccccc4)c23)cc1`, for which the TGI was above 100 µM.
Regarding `ClCc1cccc(Cn2cnc3ncnc(Cl)c32)c1`, the GI50 was 15.2 µM and the TGI came to 32.2 µM.
`CC1(C)C2CCC(=O)C1CC2` (stereo not given) gave a TGI above 100 µM.
On the same count and under the same terms, in the case of `O=S1(=O)OCCOS(=O)(=O)C1Br` it was above 100 µM; in that of `CCOC(=O)C(=C=C=C(c1ccccc1)c1ccccc1)C(=O)OCC`, 51.2 µM.
With `CC1=CC(O)(c2ccc(-c3ccccc3Cl)cc2)OC1=O` (stereo not given), the TGI is above 100 µM.
With `OCCCCCNCc1cc2cc3c(cc2c2cc(OCc4ccccc4)ccc12)OCO3`, the GI50 was 1.39 µM and the TGI amounted to 2.69 µM.
The compound `C/C(=N\NC(=S)NC(CCC(=O)O)C(=O)O)c1ccccn1` (stereo not given) registered a TGI above 100 µM.
`C#CC1(O)CCC2C3CCc4cc(Oc5nc(F)nc(-c6c7ccccc7c7sc8ccccc8n67)n5)ccc4C3CC[C@@]21C` (stereo not given in full) gave a TGI above 100 µM.
Take `Cc1ccc(NC(=O)c2cc3cc(N=Nc4ccccc4C(=O)O)ccc3oc2=O)cc1`: the TGI is above 100 µM.
With `COc1ccc(S(=O)(=O)NNS(C)(=O)=O)cc1`, the TGI is above 100 µM.
Turning to `O=C(/C=C\c1ccc(Cl)c(Cl)c1)c1ccc(Cl)cc1Cl`, the TGI was 8.47 µM and 18.9 µM.
Turning to `C=C1C(=O)O[C@H]2[C@H]1CC/C(COC(=O)c1c[nH]c3ccccc13)=C\CC[C@@]1(C)O[C@@H]21`, the GI50 is 0.234 µM and the TGI is 0.752 µM.
In turn, `O=C1NCC2(CCN(CCCC3(c4ccc(F)cc4)OCCO3)CC2)N1c1ccccc1` had a TGI above 100 µM.
The same measure, in the same setting: next, `CC(=O)/C(=C\c1cccc([N+](=O)[O-])c1)C(=O)Nc1ccccc1C`: above 100 µM.
In turn, `CCN1c2ccccc2C(C(SC)S(=O)(=O)c2ccc(C)cc2)c2c1[nH]c(=O)n(C)c2=O` (stereo not given) showed a TGI above 100 µM.
The compound `COC(OC)C(C)CC(=O)N(C)C` (stereo not given) had a TGI above 100 µM.

Another assay concerns MCF7 breast. Kind of assay: inhibition of tumour cell growth, NCI panel, 48 h.
The compound `CCOC(=O)c1cc2nc3ccccc3c(=O)n2c2ccccc12` came in with a TGI above 10 µM.
Regarding `CC1(C)C2CCC(=O)C1CC2` (stereo not given), the TGI is above 100 µM.

The test system of a further assay is SR leukemia. Kind of assay: inhibition of tumour cell growth, NCI panel, 48 h.
`O=c1cc(-c2ccccc2)oc2cc(OCCCOc3ccc4c(=O)cc(-c5ccccc5)oc4c3)ccc12` returned a TGI above 100 µM.
Consider `Clc1ccc(C(c2ccc(Cl)cc2)c2ccccn2)cc1`, for which the TGI came to 49.8 µM.
In the case of `Cn1cnc([N+](=O)[O-])c1Sc1nc2ccccc2[nH]1`, the TGI came to 45.1 µM.
Compound `CCCCCCN(CCCCCC)C(=O)Cc1c2n(c3ccccc13)Cc1ccccc1-2` showed a TGI above 100 µM.
Regarding `CCCCCCCCC/C=C1\CCC(CN2CCOCC2)C1=O` (stereo not given), the TGI turned out to be 6.28 µM.
Compound `CC(=O)OC1COC(n2ccc3cc(Br)c([N+](=O)[O-])cc32)C(OC(C)=O)C1OC(C)=O` (stereo not given) displayed a TGI above 100 µM.
Still for that read-out and setting: next, `CN(C)c1nc(=Nc2ccc(N=c3nc(N(C)C)ss3)cc2)ss1`: 64.9 µM; `O=[N+]([O-])C(/C=C(\Cl)n1nnc2ccccc21)=C(/Cl)n1nnc2ccccc21`: above 100 µM.
Still for that read-out and setting: next, `CCc1cc(Cc2cc(CC)c(NC(=O)C(=O)Cc3ccccn3)c(CC)c2Cl)c(Cl)c(CC)c1NC(=O)C(=O)Cc1ccccn1`: above 100 µM.
As for `O=S1(=O)OCCOS(=O)(=O)C1Br`, the TGI was above 100 µM.
As to `C/C(=N\NC(=S)NC(CCC(=O)O)C(=O)O)c1ccccn1` (stereo not given), the TGI is above 100 µM.
The same measure, in the same setting: in the case of `C#CC1(O)CCC2C3CCc4cc(Oc5nc(F)nc(-c6c7ccccc7c7sc8ccccc8n67)n5)ccc4C3CC[C@@]21C` (stereo not given in full) it was above 100 µM.
As for `Cc1c2c(nn1-c1ccc(S(=O)(=O)/N=C3\SCCC(=O)N3c3ccccc3)cc1)-c1ccccc1CC2`, the GI50 was 65 µM and the TGI is above 100 µM.
In turn, `COc1ccc(S(=O)(=O)NNS(C)(=O)=O)cc1` came in with a TGI above 100 µM.
Consider `O=C(/C=C\c1ccc(Cl)c(Cl)c1)c1ccc(Cl)cc1Cl`, for which the GI50 was 7.87 µM.
For the compound `C=C1C(=O)O[C@H]2[C@H]1CC/C(COC(=O)c1c[nH]c3ccccc13)=C\CC[C@@]1(C)O[C@@H]21`, the GI50 was 0.285 µM and the TGI was 1.33 µM.
Consider `O=C1NCC2(CCN(CCCC3(c4ccc(F)cc4)OCCO3)CC2)N1c1ccccc1`, for which the TGI was above 100 µM.
In the case of `COc1cc(/C=C2\CN(S(=O)(=O)c3ccccc3)C/C(=C\c3cc(CN4CCCC4)c(O)c(OC)c3)C2=O)cc(CN2CCCC2)c1O`, the GI50 is 0.458 µM and the TGI was above 100 µM.
On to `CC(=O)/C(=C\c1cccc([N+](=O)[O-])c1)C(=O)Nc1ccccc1C`, for which the TGI was above 100 µM.

A further assay relates to MDA-MB-435. Kind of assay: inhibition of tumour cell growth, NCI panel, 48 h.
In turn, `CCOC(=O)c1cc2nc3ccccc3c(=O)n2c2ccccc12` yielded a TGI above 10 µM.
Take `CCCCCCCCC/C=C1\CCC(CN2CCOCC2)C1=O` (stereo not given): the TGI was found to be 6.5 µM.
Take `O=[N+]([O-])C(/C=C(\Cl)n1nnc2ccccc21)=C(/Cl)n1nnc2ccccc21`: the TGI was above 100 µM.
Consider `ClCc1cccc(Cn2cnc3ncnc(Cl)c32)c1`, for which the GI50 was 3.46 µM and the TGI was 12.9 µM.
